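The compound was tested at five concentrations on cells cultured in 96-well plates, with a 48-hour exposure period. Here, GI50 denotes the concentration required for 50% inhibition of growth. TGI marks complete inhibition of growth.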
Key:
Assay in all cases: NCI tumour cell line growth inhibition, 48 h
SK-MEL-2 melanoma = tested on: SK-MEL-2 melanoma
HCT-116 colon = tested on: HCT-116 colon
SK-MEL-5 melanoma = tested on: SK-MEL-5 melanoma
SK-OV-3 ovarian = tested on: SK-OV-3 ovarian
NCI-H226 lung = tested on: NCI-H226 lung
KM12 colon = tested on: KM12 colon
HCT-15 colon = tested on: HCT-15 colon
A498 renal = tested on: A498 renal
SF-539 CNS = tested on: SF-539 CNS
UACC-257 melanoma = tested on: UACC-257 melanoma
SW-620 colon = tested on: SW-620 colon
IGROV1 ovarian = tested on: IGROV1 ovarian
MDA-MB-468 breast = tested on: MDA-MB-468 breast
CCRF-CEM leukemia = tested on: CCRF-CEM leukemia
PC-3 prostate = tested on: PC-3 prostate
RXF 393 renal = tested on: RXF 393 renal
SNB-19 CNS = tested on: SNB-19 CNS
COLO 205 colon = tested on: COLO 205 colon
A549 NSCLC = tested on: A549 NSCLC
TK-10 renal = tested on: TK-10 renal
HS 578T breast = tested on: HS 578T breast
DU-145 prostate = tested on: DU-145 prostate
OVCAR-8 ovarian = tested on: OVCAR-8 ovarian
SF-268 CNS = tested on: SF-268 CNS
MOLT-4 leukemia = tested on: MOLT-4 leukemia
OVCAR-5 ovarian = tested on: OVCAR-5 ovarian
ACHN renal = tested on: ACHN renal
U251 CNS = tested on: U251 CNS
M14 melanoma = tested on: M14 melanoma
SF-295 CNS = tested on: SF-295 CNS
HCC-2998 colon = tested on: HCC-2998 colon
SK-MEL-28 melanoma = tested on: SK-MEL-28 melanoma
UACC-62 melanoma = tested on: UACC-62 melanoma
T-47D breast = tested on: T-47D breast
LOX IMVI melanoma = tested on: LOX IMVI melanoma
NCI-H23 lung = tested on: NCI-H23 lung
MALME-3M melanoma = tested on: MALME-3M melanoma
NCI/ADR-RES ovarian = tested on: NCI/ADR-RES ovarian
HOP-92 NSCLC = tested on: HOP-92 NSCLC
MDA-MB-231 breast = tested on: MDA-MB-231 breast
SNB-75 CNS = tested on: SNB-75 CNS
BT-549 breast = tested on: BT-549 breast
UO-31 renal = tested on: UO-31 renal
MCF7 breast = tested on: MCF7 breast
NCI-H460 lung = tested on: NCI-H460 lung
786-0 renal = tested on: 786-0 renal
RPMI-8226 leukemia = tested on: RPMI-8226 leukemia
HT29 colon = tested on: HT29 colon
OVCAR-3 ovarian = tested on: OVCAR-3 ovarian
NCI-H522 lung = tested on: NCI-H522 lung
K-562 leukemia = tested on: K-562 leukemia
SN12C renal = tested on: SN12C renal
HL-60(TB) leukemia = tested on: HL-60(TB) leukemia
EKVX NSCLC = tested on: EKVX NSCLC
HOP-62 NSCLC = tested on: HOP-62 NSCLC
SR leukemia = tested on: SR leukemia
MDA-MB-435 = tested on: MDA-MB-435
CAKI-1 renal = tested on: CAKI-1 renal

SMILES: O=C(CS(=O)(=O)c1oc(-c2ccc(Cl)cc2)nc1S(=O)(=O)c1ccccc1)N1CCCC1
- GI50 (SK-MEL-2 melanoma): 15 µM
- TGI (SK-MEL-2 melanoma): 29 µM
- GI50 (HCT-116 colon): 1.81 µM
- TGI (HCT-116 colon): 4.07 µM
- GI50 (SK-MEL-5 melanoma): 14.3 µM
- TGI (SK-MEL-5 melanoma): 27.6 µM
- GI50 (SK-OV-3 ovarian): 18 µM
- TGI (SK-OV-3 ovarian): 33 µM
- GI50 (NCI-H226 lung): 15.1 µM
- TGI (NCI-H226 lung): 39 µM
- GI50 (KM12 colon): 16.8 µM
- TGI (KM12 colon): 33 µM
- GI50 (HCT-15 colon): 1.43 µM
- TGI (HCT-15 colon): 2.99 µM
- GI50 (A498 renal): 14.2 µM
- TGI (A498 renal): 27.3 µM
- GI50 (SF-539 CNS): 1.64 µM
- TGI (SF-539 CNS): 2.99 µM
- GI50 (UACC-257 melanoma): 1.88 µM
- TGI (UACC-257 melanoma): 3.62 µM
- GI50 (SW-620 colon): 1.06 µM
- TGI (SW-620 colon): 2.41 µM
- GI50 (IGROV1 ovarian): 13.1 µM
- TGI (IGROV1 ovarian): 29.3 µM
- GI50 (MDA-MB-468 breast): 1.08 µM
- TGI (MDA-MB-468 breast): 2.49 µM
- GI50 (CCRF-CEM leukemia): 0.4 µM
- TGI (CCRF-CEM leukemia): 2.36 µM
- GI50 (PC-3 prostate): 9.59 µM
- TGI (PC-3 prostate): 27.5 µM
- GI50 (RXF 393 renal): 1.36 µM
- TGI (RXF 393 renal): 2.79 µM
- GI50 (SNB-19 CNS): 16 µM
- TGI (SNB-19 CNS): 30.5 µM
- GI50 (COLO 205 colon): 2.14 µM
- TGI (COLO 205 colon): 4.68 µM
- GI50 (A549 NSCLC): 14.3 µM
- TGI (A549 NSCLC): 31.6 µM
- GI50 (TK-10 renal): 1.75 µM
- TGI (TK-10 renal): 3.19 µM
- GI50 (HS 578T breast): 7.21 µM
- TGI (HS 578T breast): 53.9 µM
- GI50 (DU-145 prostate): 1.76 µM
- TGI (DU-145 prostate): 3.37 µM
- GI50 (OVCAR-8 ovarian): 11.2 µM
- TGI (OVCAR-8 ovarian): 33.2 µM
- GI50 (SF-268 CNS): 14.9 µM
- TGI (SF-268 CNS): 43.2 µM
- GI50 (MOLT-4 leukemia): 2.38 µM
- TGI (MOLT-4 leukemia): > 100 µM
- GI50 (OVCAR-5 ovarian): 13.7 µM
- TGI (OVCAR-5 ovarian): 27.4 µM
- GI50 (ACHN renal): 1.52 µM
- TGI (ACHN renal): 2.85 µM
- GI50 (U251 CNS): 15.9 µM
- TGI (U251 CNS): 29.8 µM
- GI50 (M14 melanoma): 1.88 µM
- TGI (M14 melanoma): 4.07 µM
- GI50 (SF-295 CNS): 13.4 µM
- TGI (SF-295 CNS): 26.8 µM
- GI50 (HCC-2998 colon): 14.5 µM
- TGI (HCC-2998 colon): 28.7 µM
- GI50 (SK-MEL-28 melanoma): 3.58 µM
- TGI (SK-MEL-28 melanoma): 12.5 µM
- GI50 (UACC-62 melanoma): 3.35 µM
- TGI (UACC-62 melanoma): 13.6 µM
- GI50 (T-47D breast): 1.8 µM
- TGI (T-47D breast): 4.47 µM
- GI50 (LOX IMVI melanoma): 1.49 µM
- TGI (LOX IMVI melanoma): 2.86 µM
- GI50 (NCI-H23 lung): 11.4 µM
- TGI (NCI-H23 lung): 26.8 µM
- GI50 (MALME-3M melanoma): 1.69 µM
- TGI (MALME-3M melanoma): 3.09 µM
- GI50 (NCI/ADR-RES ovarian): 15.9 µM
- TGI (NCI/ADR-RES ovarian): 70.5 µM
- GI50 (HOP-92 NSCLC): 2.38 µM
- TGI (HOP-92 NSCLC): 4.68 µM
- GI50 (MDA-MB-231 breast): 1.71 µM
- TGI (MDA-MB-231 breast): 3.1 µM
- GI50 (SNB-75 CNS): 10.1 µM
- TGI (SNB-75 CNS): 23 µM
- GI50 (BT-549 breast): 1.88 µM
- TGI (BT-549 breast): 3.48 µM
- GI50 (UO-31 renal): 1.54 µM
- TGI (UO-31 renal): 2.96 µM
- GI50 (MCF7 breast): 1.47 µM
- TGI (MCF7 breast): 3.34 µM
- GI50 (NCI-H460 lung): 12.3 µM
- TGI (NCI-H460 lung): 26.3 µM
- GI50 (786-0 renal): 1.51 µM
- TGI (786-0 renal): 3.01 µM
- GI50 (RPMI-8226 leukemia): 2.99 µM
- TGI (RPMI-8226 leukemia): > 100 µM
- GI50 (HT29 colon): 2.07 µM
- TGI (HT29 colon): 5.07 µM
- GI50 (OVCAR-3 ovarian): 1.29 µM
- TGI (OVCAR-3 ovarian): 2.71 µM
- GI50 (NCI-H522 lung): 1.11 µM
- TGI (NCI-H522 lung): 2.53 µM
- GI50 (K-562 leukemia): 0.707 µM
- TGI (K-562 leukemia): > 100 µM
- GI50 (SN12C renal): 12 µM
- TGI (SN12C renal): 24.9 µM
- GI50 (HL-60(TB) leukemia): 1.31 µM
- TGI (HL-60(TB) leukemia): > 100 µM
- GI50 (EKVX NSCLC): 2.03 µM
- TGI (EKVX NSCLC): 4.9 µM
- GI50 (HOP-62 NSCLC): 17.8 µM
- TGI (HOP-62 NSCLC): 34 µM
- GI50 (SR leukemia): 2.6 µM
- TGI (SR leukemia): > 100 µM
- GI50 (MDA-MB-435): 2.88 µM
- TGI (MDA-MB-435): 13.6 µM
- GI50 (CAKI-1 renal): 1.41 µM
- TGI (CAKI-1 renal): 2.75 µM

From PubChem BioAssay (NCI)
